# Article PMC4147378 (Bioorganic & medicinal chemistry, 2014)
# Entries after “also recorded” stand apart in the source; their conditions may differ.
# What was measured:
# GST-hFXR-LBD = target: T1, GST-hFXR-LBD (Homo sapiens, UniProt Q96RI1); assay: FXR TR-FRET binding assay; conditions: Table 3; ratio fits the TR-FRET binding IC50
# T1 sequence (Q96RI1 262-486 limits assumed): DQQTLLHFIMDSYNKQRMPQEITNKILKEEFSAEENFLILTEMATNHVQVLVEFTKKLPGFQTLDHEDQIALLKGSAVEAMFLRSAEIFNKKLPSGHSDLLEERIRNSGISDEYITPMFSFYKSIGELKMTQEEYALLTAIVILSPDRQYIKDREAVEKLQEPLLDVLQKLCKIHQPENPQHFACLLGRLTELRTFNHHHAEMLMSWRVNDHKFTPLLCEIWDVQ
# [1] = test system: GeneBLAzer FXR-UAS-bla HEK 293T cells; assay: Cytotoxicity assay in GeneBLAzer FXR cells; format: cell-based, human
# FXR [2] = target: T2, FXR (Homo sapiens, UniProt Q96RI1); assay: GeneBLAzer FXR cell-based agonistic; conditions: compound alone, without GW4064; data not shown
# T2 sequence (Q96RI1 262-486 limits assumed): T1 sequence (Q96RI1 262-486 limits assumed)
# FXR [3] = target: T2, FXR; assay: GeneBLAzer FXR cell-based antagonistic; conditions: data not shown
activity against FXR at 1 µM (FXR [3]),SMILES,other results
essentially inactive,"Cc1ccc(-c2nn(C(C)C)cc2C(=O)N(C)c2ccc(C)c(S(=O)(=O)N3CCOCC3)c2)cc1 [Compound 8a, 1-Isopropyl-N-methyl-N-(4-methyl-3-(morpholinosulfonyl)phenyl)-3-(p-tolyl)-1H-pyrazole-4-carboxamide]",
essentially inactive,"COc1cccc(Cn2cc(C(=O)N(C)c3ccc(C)c(S(=O)(=O)N4CCOCC4)c3)c(C(C)C)n2)c1 [Compound 8b, 3-Isopropyl-1-(3-methoxybenzyl)-N-methyl-N-(4-methyl-3-(morpholinosulfonyl)phenyl)-1H-pyrazole-4-carboxamide]",
essentially inactive,"COc1cccc(Cn2cc(C(=O)N(C)c3ccc(C)c(S(=O)(=O)N4CCOCC4)c3)c(-c3cccc(OC)c3)n2)c1 [Compound 8c, 1-(3-Methoxybenzyl)-3-(3-methoxyphenyl)-N-methyl-N-(4-methyl-3-(morpholinosulfonyl)phenyl)-1H-pyrazole-4-carboxamide]",

# The remaining lines, values behind:
SMILES,activity against FXR at 1 µM (FXR [3]),other results
"Cc1ccc(-c2nn(CC3CC3)cc2C(=O)Nc2ccc(C)c(S(=O)(=O)N3CCOCC3)c2)cc1 [Compound 4i, 1-(Cyclopropylmethyl)-N-(4-methyl-3-(morpholinosulfonyl)phenyl)-3-(p-tolyl)-1H-pyrazole-4-carboxamide]",,fold decreased activity for FXR as compared to E16 (GST-hFXR-LBD): 2 fold
"COc1cccc(Cn2cc(C(=O)Nc3ccc(C)c(S(=O)(=O)N4CCOCC4)c3)c(-c3ccc(C)cc3)n2)c1 [Compound 4j, 1-(3-Methoxybenzyl)-N-(4-methyl-3-(morpholinosulfonyl)phenyl)-3-(p-tolyl)-1H-pyrazole-4-carboxamide]",,cytotoxicity [1]: no detectable; also recorded: no cytotoxicity; also recorded: does not have any; FXR agonistic activity (FXR [2]): no detectable; also recorded: no FXR agonistic activity; also recorded: does not have any
